Measured values published in patent publication EP3318253B1, “COMPOSITIONS COMPRISING WNT INHIBITORS FOR TREATING CANCER” (Schmidt-Wolf, Ingo, priority 2010, dated 2012).

Experiments:
[1] = test system: lymphoma and myeloma cell lines; assay: Titration of the optimal concentration; format: cell-based, human; conditions: without significantly deteriorating viability of normal PBMCs, data not shown
From the text: (§1) As a first step, we determined the optimal concentration of EA in various lymphoma and myeloma cell lines. Subsequently, we determined the optimal concentration of EA in PBMCs derived from healthy individuals in order to check for toxicity. […] The effect of DMSO as a toxic solvent was only observed in the myeloma cell line OPM-2 (Figure 1C). As a control, peripheral blood mononuclear cells (PBMCs) were investigated by FACS analysis. A toxic effect affecting the cells induced a shift from viable, DiOC6-positive cells to apoptotic, DiOC6-negative cells.
(§2) Experiments were performed as reported recently.
as §1, with “CIC” for “EA”, “(Fig. 7C).” for “(Figure 1C).”

[2] = test system: primary CLL cells; conditions: earlier work of the group; cited from earlier work
[3] = test system: β-catenin; assay: Western blot, β-catenin expression in RPMI 8226 cells; format: cell-based, human; conditions: RPMI 8226 cells treated for 24h
Experimental: (§3) Western blot was performed as described recently^16.
(§4) • Figure 1. […] Data are shown as mean ± SD. • Figure 2. […] Data are shown as mean ± SD. • Figure 3. […] (A) Flow cytometric results. […] Finally, ECL reagent was utilized for detection. • Figure 4C. […] Finally, ECL reagent was utilized for detection. • Figure 5. Effect of EA on viability of myeloma primary cells. […] Results represent data from two separate experiments. Data are shown as mean. • Figure 6. […] (A) Tumor growth and (B) overall survival were measured. Six animals were assayed per group.
(§5) Western blot was performed as described recently.
(§6) • Figure 7. […] Data are shown as mean ± SD. • Figure 8. […] Data are shown as mean ± SD. • Figure 9. Effect of CIC on the Wnt/beta catenin pathway. (A) Flow cytometric results. […] Finally, ECL reagent was utilized for detection. • Figure 10C. […] Finally, ECL reagent was utilized for detection. • Figure 11. […] (A) Tumor growth and (B) overall survival were measured. Six animals were assayed per group. HD CIC.

[4] = test system: OPM-2, U266 and RPMI 8226 cells; assay: Cell viability by DiOC6 staining in myeloma cell lines (mean IC50, combinations); format: cell-based, human; conditions: Homo sapiens; mean of the IC50 results in OPM-2, U266 and RPMI 8226 cells
Experimental: A mean IC50 value in myeloma cells was determined using the mean of the IC50 results determined in OPM-2, U266 and RPMI 8226 cells.
as §4
Experiments were performed as reported recently. […]

[5] = test system: Wnt/beta catenin; conditions: Gen-plus drug library, 960 compounds; cited from earlier work
[6] = test system: beta catenin; assay: Western blot, Wnt/beta catenin pathway in lymphoma cells; format: cell-based, human
Experimental: as §3, §4, §5, §6

[7] = test system: β-catenin; assay: Western blot, β-catenin expression in KMS-18 cells; format: cell-based, human; conditions: KMS-18 cells treated for 24h
Experimental: as §3, §4, §5, §6

[8] = test system: PBL; assay: Cell viability by DiOC6 staining, flow cytometry (normal control cells); conditions: Homo sapiens, PBL, 72 h
Experimental: Peripheral blood mononuclear cells (PBMC) and PBL were isolated from blood samples of healthy volunteers by Ficoll density gradient centrifugation (Lymphoprep, Nycomed, Oslo, Norway).
1x10^5 Cells were cultured in 3 ml Medium in 6-well plates. […] The apoptosis assay was performed with 3'3-dihexyloxacarbocyanine iodide (DiOC6) detecting mitochondrial membrane potential in viable cells, and propidium iodide (PI) which binds to DNA in necrotic cells, measured by a fluorescence-activated cell sorter (FACS).
For FACS analysis, 500µl staining solution containing 80 nM DiOC6 in FACS buffer, consisting of deficient RPMI-medium with 0.5% bovine serum albumin (BSA), was mixed with equal volumes of the cell sample in a glass tube and incubated at 37°C for 15 min. After a washing step with PBS/BSA 1% the cells were re-suspended in 500µl PBS/BSA 1%. After addition of 5µl PI-solution (100µg/ml) the cells were analyzed by FACS. Using this assay, viable cells reveal high fluorescence intensity for DiOC6 and a low expression for PI. In contrary, apoptotic cells show a low expression for DiOC6 and also a low expression for PI (2). Finally, necrotic cells show a low expression for DiOC6 and a high expression for PI.
PBMC and PBL derived from healthy individuals were used as normal controls. 1x10^5 cells were cultured with each compound using various concentrations for three days. Then cell viability was measured by DIOC6 staining by flow cytometry. Results represent data from two to four separate experiments each.
PBMC and PBL derived from healthy individuals were used as normal controls. 1x10^5 cells were cultured with each compound using various concentrations for three days. Then cell viability was measured by DIOC6 staining by flow cytometry. Results represent data from 2 to 4 separate experiments each.
1x10^5 Cells were cultured in 3 ml Medium in 6-well plates. […] The apoptosis assay was performed with 3' 3-dihexyloxacarbocyanine iodide (DiOC6) detecting mitochondrial membrane potential in viable cells, and propidium iodide (PI) which binds to DNA in necrotic cells, measured by a fluorescence-activated cell sorter (FACS).
PBL derived from healthy individuals were used as controls. 1x10^5 cells were cultured with each compound using various concentrations for three days. Then cell viability was measured by DIOC6 staining by flow cytometry and IC 50 rates were determined. Results represent data from 2 to 4 separate experiments each.
PBMC and PBL derived from healthy individuals were used as controls. 1x10^5 cells were cultured with each compound using various concentrations for three days.

[9] = test system: RPMI 8226; assay: Cell viability by DiOC6 staining, flow cytometry; format: cell-based; conditions: Homo sapiens, 72 h, 1x10^5 cells cultured three days, various concentrations
Experimental: as §2
(§7) PBL derived from healthy individuals were used as controls. […] ND, not done.

[10] = test system: Raji; assay: Cell viability by DiOC6 staining, flow cytometry; format: cell-based; conditions: Homo sapiens
Experimental: as §2, §7

[11] = test system: SU-DHL 4; assay: Cell viability by DiOC6 staining, flow cytometry; format: cell-based; conditions: Homo sapiens
Experimental: as §2, §7

[12] = test system: OCI-Ly8 LAM53; assay: Cell viability by DiOC6 staining, flow cytometry; format: cell-based; conditions: Homo sapiens
Experimental: as §2, §7

[13] = test system: U266; assay: Cell viability by DiOC6 staining, flow cytometry; format: cell-based; conditions: Homo sapiens, U-266, 72 h, 1x10^5 cells cultured three days, various concentrations
Experimental: as §2, §7

[14] = test system: PBMC; assay: Cell viability by DiOC6 staining, flow cytometry (normal control cells); format: cell-based, human
Experimental: PBMCs were isolated from blood of healthy donors by Ficoll-Hypaque density gradient centrifugation. Blood from buffy coats was mixed 1:2 with PBS/1% BSA (both PAA, Cölbe, Germany) and used for a ficoll gradient (LymphoPrep, PAA, Cölbe, Germany). After the centrifugation at 800 g for 30 minutes, the leukocyte layer was removed and transferred to new tubes. Subsequently, these cells were washed 3 times with PBS/1%BSA and re-suspended in fresh medium, consisting of RPMI medium (PAA, Cölbe, Germany) with 10% fetal calf serum (Invitrogen, Karlsruhe, Germany), 2.5% hepes buffer solution (PAA, Cölbe, Germany), and 1% penicillin/streptomycin (PAA, Cölbe, Germany).
as §2

SMILES	most effective concentration to initialize cell death [1] [µM]	cell death in primary CLL cells [2]	β-catenin expression [3]	IC50 [4] [µM]	identified in TOPflash reporter screen [5]	beta catenin expression in lymphoma cells [6]	β-catenin expression [7]	IC50 [8] [µM]	IC50 [9] [µM]	IC50 ([10]; after 72 h) [µM]	IC50 ([11]; SU-DHL-4, after 72 h) [µM]	IC50 ([12]; OCI-Ly8, LAM-53, after 72 h) [µM]	IC50 [13] [µM]	IC50 ([14]; Homo sapiens, PBMC, after 72 h) [µM]	IC50 ([14]; PBMC from healthy individuals, three days) [µM]	effect on normal PBMC and PBL ([14]; normal PBMC and PBL, result in words)	IC50 ([10]; 72 h, 1x10^5 cells cultured three days, various concentrations) [µM]	IC50 ([11]; 72 h, SU-DHL 4, 1x10^5 cells cultured three days, various concentrations) [µM]	IC50 ([12]; 72 h, OCI-Ly8 LAM53, 1x10^5 cells cultured three days, various concentrations) [µM]	IC50 ([14]; Homo sapiens, 72 h, PBMC from healthy individuals, three days) [µM]
Cc1cc(C2CCCCC2)n(O)c(=O)c1 [CIC, ciclopirox olamine]	30	selectively induced cell death	slightly decreased	30	Wnt/beta catenin inhibitors	down regulated	decreased	9	6	6	7	2	6	> 400	> 400	marginal				
C=C(CC)C(=O)c1ccc(OCC(=O)O)c(Cl)c1Cl [EA, 2-[2,3-dichloro-4-(2-methylidenebutanoyl)phenoxy] acetic acid]	30	selectively induced cell death	slightly increased	30	Wnt/beta catenin inhibitors	down regulated	increased	10	8				60				33	58	57	> 400
